Assay results: ChEMBL document CHEMBL3885881, “DrugMatrix”

Species on record: Rattus norvegicus
Assay: DrugMatrix - Regimen: Daily Repeat
Assay type: toxicity, organism-based, Sprague-Dawley
Design: regimen Daily Repeat, gender Male, age 6-8 weeks
Conditions: in vivo, po, 0 mg/kg, route oral GAVAGE, dose level Control, vehicle .5 % CMC; for ABSOLUTE BASOPHIL / ABSOLUTE EOSINOPHIL / ABSOLUTE LYMPHOCYTE / ABSOLUTE MONOCYTE / ABSOLUTE SEGMENTED NEUTROPHIL / BASOPHIL / EOSINOPHIL / ERYTHROCYTE COUNT / HEMATOCRIT / HEMOGLOBIN / LEUKOCYTE COUNT / LYMPHOCYTE / MEAN CORPUSCULAR HEMOGLOBIN / MEAN CORPUSCULAR HEMOGLOBIN CONCENTRATION / MEAN CORPUSCULAR VOLUME / MONOCYTE / NEUTROPHIL / NUCLEATED RED BLOOD CELLS / PLATELET COUNT: tissue Blood; for ALANINE AMINOTRANSFERASE / ALBUMIN / ALKALINE PHOSPHATASE / ASPARTATE AMINOTRANSFERASE / BLOOD UREA NITROGEN / CARBON DIOXIDE / CHLORIDE / CHOLESTEROL / CREATININE / GLUCOSE / LACTATE DEHYDROGENASE / LIPASE / PHOSPHORUS / POTASSIUM / SODIUM / TOTAL BILIRUBIN / TOTAL PROTEIN / URIC ACID: tissue Plasma

ClC(Cl)Br [BROMODICHLOROMETHANE]
ABSOLUTE BASOPHIL (72 h, time 3 day): 0 CELLS/uL
ABSOLUTE EOSINOPHIL (72 h, time 3 day): 279.83 CELLS/uL
ABSOLUTE LYMPHOCYTE (72 h, time 3 day): 13152.5 CELLS/uL
ABSOLUTE MONOCYTE (72 h, time 3 day): 1013.83 CELLS/uL
ABSOLUTE SEGMENTED NEUTROPHIL (72 h, time 3 day): 2420.5 CELLS/uL
BASOPHIL (72 h, time 3 day): 0%
EOSINOPHIL (72 h, time 3 day): 1.67%
ERYTHROCYTE COUNT (72 h, time 3 day): 5.26 x10E6/uL
HEMATOCRIT (72 h, time 3 day): 32.22%
HEMOGLOBIN (72 h, time 3 day): 12.02 G/DL
LEUKOCYTE COUNT (72 h, time 3 day): 16.87 x10E3/uL
LYMPHOCYTE (72 h, time 3 day): 77.83%
MEAN CORPUSCULAR HEMOGLOBIN (72 h, time 3 day): 22.93 pg
MEAN CORPUSCULAR HEMOGLOBIN CONCENTRATION (72 h, time 3 day): 37.32 G/DL
MEAN CORPUSCULAR VOLUME (72 h, time 3 day): 61.4 fL
MONOCYTE (72 h, time 3 day): 6%
NEUTROPHIL (72 h, time 3 day): 14.5%
NUCLEATED RED BLOOD CELLS (72 h, time 3 day): 0 /100WBC
PLATELET COUNT (72 h, time 3 day): 1122.17 x10E3/uL
ALANINE AMINOTRANSFERASE (72 h, time 3 day): 55.67 u/L
ALBUMIN (72 h, time 3 day): 4.35 G/DL
ALKALINE PHOSPHATASE (72 h, time 3 day): 362.67 u/L
ASPARTATE AMINOTRANSFERASE (72 h, time 3 day): 96 u/L
BLOOD UREA NITROGEN (72 h, time 3 day): 18 mg/dL
CARBON DIOXIDE (72 h, time 3 day): 27.5 mmol/L
CHLORIDE (72 h, time 3 day): 100.17 MEQ/L
CHOLESTEROL (72 h, time 3 day): 74.5 mg/dL
CREATININE (72 h, time 3 day): 0.17 mg/dL
GLUCOSE (72 h, time 3 day): 141.67 mg/dL
LACTATE DEHYDROGENASE (72 h, time 3 day): 682.5 u/L
LIPASE (72 h, time 3 day): 10 u/L
PHOSPHORUS (72 h, time 3 day): 11.5 mg/dL
POTASSIUM (72 h, time 3 day): 6.41 MEQ/L
SODIUM (72 h, time 3 day): 141.2 MEQ/L
TOTAL BILIRUBIN (72 h, time 3 day): 0.18 mg/dL
TOTAL PROTEIN (72 h, time 3 day): 5.88 G/DL
URIC ACID (72 h, time 3 day): 1.4 mg/dL
ABSOLUTE BASOPHIL (120 h, time 5 day): 0 CELLS/uL
ABSOLUTE EOSINOPHIL (120 h, time 5 day): 18.5 CELLS/uL
ABSOLUTE LYMPHOCYTE (120 h, time 5 day): 8146.83 CELLS/uL
ABSOLUTE MONOCYTE (120 h, time 5 day): 204.83 CELLS/uL
ABSOLUTE SEGMENTED NEUTROPHIL (120 h, time 5 day): 1329.83 CELLS/uL
BASOPHIL (120 h, time 5 day): 0%
EOSINOPHIL (120 h, time 5 day): 0.17%
ERYTHROCYTE COUNT (120 h, time 5 day): 5.37 x10E6/uL
HEMATOCRIT (120 h, time 5 day): 33.17%
HEMOGLOBIN (120 h, time 5 day): 12.07 G/DL
LEUKOCYTE COUNT (120 h, time 5 day): 9.7 x10E3/uL
LYMPHOCYTE (120 h, time 5 day): 85.33%
MEAN CORPUSCULAR HEMOGLOBIN (120 h, time 5 day): 22.52 pg
MEAN CORPUSCULAR HEMOGLOBIN CONCENTRATION (120 h, time 5 day): 36.42 G/DL
MEAN CORPUSCULAR VOLUME (120 h, time 5 day): 61.78 fL
MONOCYTE (120 h, time 5 day): 1.83%
NEUTROPHIL (120 h, time 5 day): 12.67%
NUCLEATED RED BLOOD CELLS (120 h, time 5 day): 0 /100WBC
PLATELET COUNT (120 h, time 5 day): 907.5 x10E3/uL
ALANINE AMINOTRANSFERASE (120 h, time 5 day): 58.5 u/L
ALBUMIN (120 h, time 5 day): 4.4 G/DL
ALKALINE PHOSPHATASE (120 h, time 5 day): 377.67 u/L
ASPARTATE AMINOTRANSFERASE (120 h, time 5 day): 140.33 u/L
BLOOD UREA NITROGEN (120 h, time 5 day): 15.33 mg/dL
CARBON DIOXIDE (120 h, time 5 day): 32.17 mmol/L
CHLORIDE (120 h, time 5 day): 100 MEQ/L
CHOLESTEROL (120 h, time 5 day): 71.83 mg/dL
CREATININE (120 h, time 5 day): 0.18 mg/dL
GLUCOSE (120 h, time 5 day): 185 mg/dL
LACTATE DEHYDROGENASE (120 h, time 5 day): 241.5 u/L
LIPASE (120 h, time 5 day): 9.5 u/L
PHOSPHORUS (120 h, time 5 day): 13.02 mg/dL
POTASSIUM (120 h, time 5 day): 6.45 MEQ/L
SODIUM (120 h, time 5 day): 143.45 MEQ/L
TOTAL BILIRUBIN (120 h, time 5 day): 0.22 mg/dL
TOTAL PROTEIN (120 h, time 5 day): 6.1 G/DL
URIC ACID (120 h, time 5 day): 1 mg/dL
ABSOLUTE BASOPHIL ([…], time 14 day): 0 CELLS/uL
ABSOLUTE EOSINOPHIL ([…], time 14 day): 117.17 CELLS/uL
ABSOLUTE LYMPHOCYTE ([…], time 14 day): 13562 CELLS/uL
ABSOLUTE MONOCYTE ([…], time 14 day): 534.83 CELLS/uL
ABSOLUTE SEGMENTED NEUTROPHIL ([…], time 14 day): 2486 CELLS/uL
BASOPHIL ([…], time 14 day): 0%
EOSINOPHIL ([…], time 14 day): 0.83%
ERYTHROCYTE COUNT ([…], time 14 day): 6.14 x10E6/uL
HEMATOCRIT ([…], time 14 day): 36.87%
HEMOGLOBIN ([…], time 14 day): 13.87 G/DL
LEUKOCYTE COUNT ([…], time 14 day): 16.7 x10E3/uL
LYMPHOCYTE ([…], time 14 day): 81%
MEAN CORPUSCULAR HEMOGLOBIN ([…], time 14 day): 22.63 pg
MEAN CORPUSCULAR HEMOGLOBIN CONCENTRATION ([…], time 14 day): 37.62 G/DL
MEAN CORPUSCULAR VOLUME ([…], time 14 day): 60.15 fL
MONOCYTE ([…], time 14 day): 3.17%
NEUTROPHIL ([…], time 14 day): 15%
NUCLEATED RED BLOOD CELLS ([…], time 14 day): 0 /100WBC
PLATELET COUNT ([…], time 14 day): 974.83 x10E3/uL
ALANINE AMINOTRANSFERASE ([…], time 14 day): 52.33 u/L
ALBUMIN ([…], time 14 day): 4.48 G/DL
ALKALINE PHOSPHATASE ([…], time 14 day): 346.17 u/L
ASPARTATE AMINOTRANSFERASE ([…], time 14 day): 81 u/L
BLOOD UREA NITROGEN ([…], time 14 day): 15.67 mg/dL
CARBON DIOXIDE ([…], time 14 day): 34.33 mmol/L
CHLORIDE ([…], time 14 day): 100.17 MEQ/L
CHOLESTEROL ([…], time 14 day): 70.83 mg/dL
CREATININE ([…], time 14 day): 0.22 mg/dL
GLUCOSE ([…], time 14 day): 141.17 mg/dL
LACTATE DEHYDROGENASE ([…], time 14 day): 121.33 u/L
LIPASE ([…], time 14 day): 8.33 u/L
PHOSPHORUS ([…], time 14 day): 9.97 mg/dL
POTASSIUM ([…], time 14 day): 6.4 MEQ/L
SODIUM ([…], time 14 day): 143.72 MEQ/L
TOTAL BILIRUBIN ([…], time 14 day): 0.22 mg/dL
TOTAL PROTEIN ([…], time 14 day): 6.45 G/DL
URIC ACID ([…], time 14 day): 1.25 mg/dL
